Test results: patent US6423829B1 (St. Jude Children's Research Hosital, priority 1997, dated 2002)
Counter-ions that a name gives are not always drawn.

Assays:
[1] = system: concentrative nucleoside transporters (cif, cit, cib); conditions: at concentrations up to 10 μM; cited from earlier work
[2] = target: T1, hENT2 (ei transporter) in CEM/N1-7 cells (Homo sapiens, UniProt Q14542); test: 3H-uridine uptake in CEM/N1-7 cells in the presence of nucleoside transport inhibitors; format: cell-based; conditions: for effect on uridine transport in CEM/N1-7 cells: FIG. 1B
T1 construct: expressed in transfected cells; host or cells: CEM/C19 (nucleoside-transport-deficient, EBNA-1-expressing subline of human T-cell leukemia CEM) carrying plasmid pDR2/N1-7
T1 sequence (Q14542 1-456): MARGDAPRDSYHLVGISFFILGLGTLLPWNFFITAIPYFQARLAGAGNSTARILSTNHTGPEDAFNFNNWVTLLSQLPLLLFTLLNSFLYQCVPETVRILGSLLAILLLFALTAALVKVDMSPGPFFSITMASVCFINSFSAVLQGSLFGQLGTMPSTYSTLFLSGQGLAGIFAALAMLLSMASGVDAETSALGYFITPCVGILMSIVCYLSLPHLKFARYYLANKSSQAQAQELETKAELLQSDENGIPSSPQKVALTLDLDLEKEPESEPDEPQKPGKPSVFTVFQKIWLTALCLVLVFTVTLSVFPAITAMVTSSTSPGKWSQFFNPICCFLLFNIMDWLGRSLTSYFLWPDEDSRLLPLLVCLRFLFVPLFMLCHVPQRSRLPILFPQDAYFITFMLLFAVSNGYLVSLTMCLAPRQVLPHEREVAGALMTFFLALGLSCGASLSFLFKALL
Procedure: The values shown are means of duplicate assays and have been corrected for extracellular water space.
FIGS. 1B-1C depict the uptake of 10 μM ^3H-uridine determined at 22° C. in Na^+buffer using a 7.5 second uptake interval in the presence of nucleoside transport inhibitors. The uptake interval was initiated by simultaneous addition of the label and inhibitory nucleobase, nucleoside or nucleotide. […] This value was subtracted from the total uridine uptake values.
Removal of sodium from the buffer had no effect on transport in CEM/N1-7 indicating the presence of an equilibrative type transporter. […] (FIG. 1B). As expected from the permeant selectivity observed for ei activity in several cell lines [Plagemann et al., Biochim. Biophys. […] This was recently confirmed by Jarvis and colleagues [Osses et al., Biochem. J., 317:843-848 (1996)] by direct measurements of hypoxanthine in human vascular endothelial cells. […] All these features are consistent with those of an ei transporter, ie., an iENTP.

CEM/C19 cells = test: DUP-785 toxicity and uridine rescue in CEM/C19 cells; format: cell-based, human
[3] = target: T2, human ei transporter in HeLa cells (Homo sapiens, UniProt Q14542); conditions: read-out: IC50 for inhibition of uridine transport via ei; cited from earlier work
T2 construct: the human ei transporter in HeLa cells where the IC50 values; host or cells: HeLa cells (endogenous)
T2 sequence (Q14542 1-456): T1 sequence (Q14542 1-456)

OCCN(CCO)c1nc(N2CCCCC2)c2nc(N(CCO)CCO)nc(N3CCCCC3)c2n1 [DIP, bis(diethanolamino)-4,8-dipiperidinopyrimido-[5,4-d]-2,6-pyrimidine]
sensitivity of the concentrative nucleoside transporters [1]: insensitive
effect on uridine transport in CEM/N1-7 cells ([2]; 10 μM inhibitor): completely blocked

Cc1c(-c2ccc(-c3ccccc3F)cc2)nc2ccc(F)cc2c1C(=O)O [DUP-785, 6-fluoro-2(2′--fluoro-1, 1′-biphenyl-4-yl)-3-methyl-4-quinoline carboxylic acid sodium salt]
sensitivity of cells to the de novo uridylate synthesis inhibitor (CEM/C19 cells): sensitive

O=[N+]([O-])c1ccc(CSc2ncnc3c2ncn3C2OC(CO)C(O)C2O)cc1 [NBMPR, 6-[(4-nitrobenzyl)thio-9-β-D-ribofuranosylpurine]]
sensitivity of the concentrative nucleoside transporters [1]: insensitive
IC50 [3]: 6 µM
effect on uridine transport in CEM/N1-7 cells ([2]; 0.1 μM inhibitor, 10 μM 3H-uridine, 22° C.): had no effect
effect on uridine transport in CEM/N1-7 cells ([2]; higher concentrations of inhibitor): Partial inhibition

O=c1[nH]cnc2nc[nH]c12 [hypoxanthine]
effect on uridine influx in CEM/N1-7 cells ([2]; competing nucleobase, nucleoside or nucleotide added with label, FIG. 1C): inhibited
